The source of these data is publication PMC10399917 (Journal of Molecular Cell Biology, 2023).

The experiment deals with His-SPIKE-S2 (Severe acute respiratory syndrome coronavirus 2, UniProt P0DTC2). In kind it is binding, SARS-CoV-2. As to conditions: 25 µM.
`N#C/C(=C/c1ccc(O)c(O)c1)C(=O)NCc1ccccc1` [AG-490]: the “Thermal shift of His-SPIKE-S2 compared to DMSO control” value is recorded as “did not show a change in the thermal shift curve”. Next, `O=C(/C=C/c1ccc(O)c(O)c1)OCCc1ccccc1` [CAPE, caffeic acid phenethyl ester]: “did not show a change in the thermal shift curve”; `CC(C)c1onc(-c2c(Cl)cccc2Cl)c1COc1ccc(/C=C/c2cccc(C(=O)O)c2)c(Cl)c1` [GW4064]: “interfered with the assay”; `Cc1cc2c(C(C)C)c(O)c(O)c(C=O)c2c(O)c1-c1c(C)cc2c(C(C)C)c(O)c(O)c(C=O)c2c1O` [gossypol acetate]: “showed thermal shift”.
